Patent US20100119599A1 (ARCHER PHARMACEUTICALS, INC., priority 2006, published 2010)

Columns and labels:
Aβ1-40 = assay: Measurement of Aβ1-40 in culture medium of 7W WT APP751 CHO cells by ELISA; type: cell-based, Chinese hamster; settings: for activity at 5 µM: Cricetulus griseus, Table 1, 5 μM test compound, CHO cells stably transfected with human APP751, culture medium, ELISA, control DMSO, 0 = no detectable amount; for Aβ1-40 (% of control): CHO cells that overexpress APP751, zero = below the detection limit of the assay
Aβ1-42 = assay: Measurement of Aβ1-42 in culture medium of 7W WT APP751 CHO cells by ELISA; type: cell-based, Chinese hamster; settings: for activity at 5 µM: Cricetulus griseus, Table 1, 5 μM test compound, CHO cells stably transfected with human APP751, culture medium, ELISA, control DMSO, 0 = no detectable amount, read-out: Aβ1-42 (% of control); for Aβ1-42 (% of control): CHO cells that overexpress APP751, zero = below the detection limit of the assay
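Note: 5 µM test compound but RI-coded compounds at 10 µM for 24 hours.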

SMILES	activity at 5 µM (Aβ1-40)	activity at 5 µM (Aβ1-42)	Aβ1-40 (% of control) (Aβ1-40)	Aβ1-42 (% of control) (Aβ1-42)
COC(=O)C1=C(C)NC2=C(C(=O)CC(C)(C)C2)C1c1ccc(-c2ccccc2)cc1 (stereo not drawn) [ST216875, methyl 2,7,7-trimethyl-5-oxo-4-(4-phenylphenyl)-1,4,6,7,8-pentahydroquinoline-3-carboxylate]	14.2%	33%		
CCCCCOC(=O)C1=C(C)NC2=C(C(=O)CCC2)C1c1cccc(Cl)c1 (stereo not drawn) [ST013152, pentyl 4-(3-chlorophenyl)-2-methyl-5-oxo-1,4,6,7,8-pentahydroquinoline-3-carboxylate]	22%	33.2%		
CC1=C(C(=O)Nc2ccccc2)C(c2cccs2)C(C#N)=C(SCC(=O)NCCc2ccccc2)N1 (stereo not drawn) [RI_27]			34.4 % of control	26.5 % of control
CC1=C(C(=O)OCC2CCCO2)C(c2cccc(Cl)c2)C2=C(CC(C)(C)CC2=O)N1 (stereo not drawn) [ST017242, oxolan-2-ylmethyl 4-(3-chlorophenyl)-2,7,7-trimethyl-5-oxo-1,4,6,7,8-pentahydroquinoline-3-carboxylate]	49.6%	0%		
CCN(CC)c1ccc(C2C(C(=O)OC3CCCC3)=C(C)NC3=C2C(=O)CC(C)(C)C3)cc1 (stereo not drawn) [ST013083, cyclopentyl 4-[4-(diethylamino)phenyl]-2,7,7-trimethyl-5-oxo-1,4,6,7,8-pentahydroquinoline-3-carboxylate]	0%	91.6%		
CCOC(=O)C1=C(C)NC2=C(C(=O)CCC2)C1c1cccnc1 (stereo not drawn) [ST013070, ethyl 2-methyl-5-oxo-4-(3-pyridyl)-1,4,6,7,8-pentahydroquinoline-3-carboxylate]	34%	82.4%		
COC(=O)C1=C(C)NC2=C(C(=O)CC(C)(C)C2)C1c1cccc(Br)c1 (stereo not drawn) [ST013145, methyl 4-(3-bromophenyl)-2,7,7-trimethyl-5-oxo-1,4,6,7,8-pentahydroquinoline-3-carboxylate]	13.9%	43.3%		
CCCCCOC(=O)C1=C(C)NC2=C(C(=O)CC(C)(C)C2)C1c1ccc(Cl)c(Cl)c1 (stereo not drawn) [ST216061, pentyl 4-(3,4-dichlorophenyl)-2,7,7-trimethyl-5-oxo-1,4,6,7,8-pentahydroquinoline-3-carboxylate]	0%	0%		
CCSCCOC(=O)C1=C(C)NC2=C(C(=O)CC(C)(C)C2)C1c1ccccc1C (stereo not drawn) [ST052342, 2-ethylthioethyl 2,7,7-trimethyl-4-(2-methylphenyl)-5-oxo-1,4,6,7,8-pentahydroquinoline-3-carboxylate]	13.7%	9.88%		
CCCCCOC(=O)C1=C(C)NC2=C(C(=O)CCC2)C1c1cccc(O)c1 (stereo not drawn) [ST017336, pentyl 4-(3-hydroxyphenyl)-2-methyl-5-oxo-1,4,6,7,8-pentahydroquinoline-3-carboxylate]	62.9%	72.7%		
COc1ccc(C2C(C(=O)OCc3ccccc3)=C(C)NC3=C2C(=O)CCC3)cc1OC (stereo not drawn) [ST013138, phenylmethyl 4-(3,4-dimethoxyphenyl)-2-methyl-5-oxo-1,4,6,7,8-pentahydroquinoline-3-carboxylate]	69.7%	56.8%		
COC(=O)C1=C(C)NC2=C(C(=O)CC(C)(C)C2)C1c1cccc(OCc2ccccc2)c1 (stereo not drawn) [ST052360, methyl 2,7,7-trimethyl-5-oxo-4-[3-(phenylmethoxy)phenyl]-1,4,6,7,8-pentahydroquinoline-3-carboxylate]	55.7%	61.6%		
N#CC1=C(N)n2c(s/c(=C/c3ccncc3)c2=O)=C(C#N)C1c1ccncc1 (stereo not drawn) [ST211853, 5-amino-3-oxo-7-(4-pyridyl)-2-(4-pyridylmethylene)-4,7-dihydro-1,3-thiazolidino[3,2-a]pyridine-6,8-dicarbonitrile]			49 % of control	18.37 % of control
CCCCOC(=O)C1=C(C)NC2=C(C(=O)CC(C)(C)C2)C1c1ccccc1[N+](=O)[O-] (stereo not drawn) [ST215464, butyl 2,7,7-trimethyl-4-(2-nitrophenyl)-5-oxo-1,4,6,7,8-pentahydroquinoline-3-carboxylate]	62.7%	90.7%		
COC(=O)C1=C(C)NC2=C(C(=O)CC(c3cccs3)C2)C1c1ccc(Cl)c(Cl)c1 (stereo not drawn) [ST052414, methyl 4-(3,4-dichlorophenyl)-2-methyl-5-oxo-7-(2-thienyl)-1,4,6,7,8-pentahydroquinoline-3-carboxylate]	70.2%	66.9%		
CCCOCCOC(=O)C1=C(C)NC2=C(C(=O)CC(C)(C)C2)C1c1ccccc1Cl (stereo not drawn) [ST052454, 2-propoxyethyl 4-(2-chlorophenyl)-2,7,7-trimethyl-5-oxo-1,4,6,7,8-pentahydroquinoline-3-carboxylate]	25.6%	33.2%		
COC(=O)C1=C(C)NC2=C(C(=O)CC(C)(C)C2)C1c1cccc(Cl)c1Cl (stereo not drawn) [ST013151, methyl 4-(2,3-dichlorophenyl)-2,7,7-trimethyl-5-oxo-1,4,6,7,8-pentahydroquinoline-3-carboxylate]	52.1%	61.6%		

SMILES	activity at 5 µM (Aβ1-40)	activity at 5 µM (Aβ1-42)	Aβ1-40 (% of control) (Aβ1-40)	Aβ1-42 (% of control) (Aβ1-42)
CCSCCOC(=O)C1=C(C)NC2=C(C(=O)CC(c3cccs3)C2)C1c1cccc(Cl)c1 (stereo not drawn) [ST051570, 2-ethylthioethyl 4-(3-chlorophenyl)-2-methyl-5-oxo-7-(2-thienyl)-1,4,6,7,8-pentahydroquinoline-3-carboxylate]	31.7%	93.8%		
CC1=C(C(=O)Nc2ccccc2)C(c2cccs2)C(C#N)=C(SCC(=O)NC2CCC(C)CC2)N1 (stereo not drawn) [RI_21]			18.7 % of control	22.1 % of control
COC(=O)C1=CN(C2CC2)C=C(C(=O)OC)C1c1ccc(Cl)cc1 [ST038738, methyl 4-(4-chlorophenyl)-1-cyclopropyl-5-(methoxycarbonyl)-1,4-dihydropyridine-3-carboxylate]			94.49 % of control	52.59 % of control
CCc1cccc(NC(=O)CSC2=C(C#N)C(c3sccc3C)C(C(=O)Nc3ccccc3)=C(C)N2)c1 (stereo not drawn) [RI_79]			55.46 % of control	51.6 % of control
CC1=C(C(=O)OC2CCCC2)C(c2cccc(Cl)c2)C2=C(CCCC2=O)N1 (stereo not drawn) [ST013156, cyclopentyl 4-(3-chlorophenyl)-2-methyl-5-oxo-1,4,6,7,8-pentahydroquinoline-3-carboxylate]	0%	13.7%		
CCOC(=O)C1=C(C)NC2=C(C(=O)CC(C)(C)C2)C1c1cccc(OC)c1OC (stereo not drawn) [ST013184, ethyl 4-(2,3-dimethoxyphenyl)-2,7,7-trimethyl-5-oxo-1,4,6,7,8-pentahydroquinoline-3-carboxylate]	73.7%	60.3%		
COc1ccc(C2C(C(=O)OC3CCCC3)=C(C)NC3=C2C(=O)CC(c2cccs2)C3)c(OC)c1OC (stereo not drawn) [ST051571, cyclopentyl 2-methyl-5-oxo-7-(2-thienyl)-4-(2,3,4-trimethoxyphenyl)-1,4,6,7,8-pentahydroquinoline-3-carboxylate]	40.4%	62.1%		
CCCOCCOC(=O)C1=C(C)NC2=C(C(=O)CC(C)(C)C2)C1c1ccc(Br)cc1 (stereo not drawn) [ST052437, 2-propoxyethyl 4-(4-bromophenyl)-2,7,7-trimethyl-5-oxo-1,4,6,7,8-pentahydroquinoline-3-carboxylate]	5.31%	16.5%		
CC1=C(C(=O)OC2CCCCC2)C(c2ccccc2C(F)(F)F)C2=C(CCCC2=O)N1 (stereo not drawn) [ST014882, cyclohexyl 2-methyl-5-oxo-4-[2-(trifluoromethyl)phenyl]-1,4,6,7,8-pentahydroquinoline-3-carboxylate]	39.5%	91.8%		
CCCOc1ccc(C2C(C(=O)OC(C)CC)=C(C)NC3=C2C(=O)CC(c2ccc(Cl)cc2)C3)cc1 (stereo not drawn) [ST017093, methylpropyl 7-(4-chlorophenyl)-2-methyl-5-oxo-4-(4-propoxyphenyl)-1,4,6,7,8-pentahydroquinoline-3-carboxylate]	46.8%	95%		
CCOc1cc(/C=c2\sc3n(c2=O)C(N)=C(C#N)C(c2ccc(O)c(OCC)c2)C=3C#N)ccc1O (stereo not drawn) [ST025033, 5-amino-7-(3-ethoxy-4-hydroxyphenyl)-2-[(3-ethoxy-4-hydroxyphenyl)methylene]-3-oxo-4,7-dihydro-1,3-thiazolidino[3,2-a]pyridine-6,8-dicarbonitrile]			53.66 % of control	57.6 % of control
CCCOC(=O)C1=C(C)NC2=C(C(=O)CC(C)(C)C2)C1c1ccc(OC)cc1OC (stereo not drawn) [ST017226, propyl 4-(2,4-dimethoxyphenyl)-2,7,7-trimethyl-5-oxo-1,4,6,7,8-pentahydroquinoline-3-carboxylate]	23.6%	26.5%		
CC1=C(C(=O)Nc2ccccc2)C(c2ccsc2)C(C#N)=C(SCC(=O)Nc2ccc(Br)cc2)N1 (stereo not drawn) [RI_73]			24.3 % of control	34.9 % of control
CC1=C(C(=O)OC(C)(C)C)C(c2ccc(Cl)cc2)C(C#N)=C(SCC(=O)Nc2ccc(C)cc2)N1 (stereo not drawn) [ST051142, tert-butyl 4-(4-chlorophenyl)-5-cyano-2-methyl-6-{[N-(4-methylphenyl)carbamoyl]methylthio}-1,4-dihydropyridine-3-carboxylate]			94.85 % of control	46.06 % of control
CCOC(=O)C1=C(C)NC2=C(C(=O)CCC2)C1c1ccc(OC)cc1OC (stereo not drawn) [ST013213, ethyl 4-(2,4-dimethoxyphenyl)-2-methyl-5-oxo-1,4,6,7,8-pentahydroquinoline-3-carboxylate]	78.2%	69.3%		
CCc1cccc(NC(=O)CSC2=C(C#N)C(c3cc4cccnc4s3)C(C(=O)Nc3ccccc3)=C(C)N2)c1 (stereo not drawn) [RI_84]			64.2 % of control	44.5 % of control
